Experimental data taken from article PMC12486440, “Design, synthesis, and in silico studies of new benzofuran–pyrazole hybrids as multi-kinase inhibitors with potential antiproliferative activity” (RSC Advances, 2025).

Experiments:
UACC-62 = conditions: single dose 10 μM; melanoma
RPMI-8226 = conditions: single dose 10 μM; leukemia
CAKI-1 = conditions: single dose 10 μM; renal carcinoma
K-562 = conditions: single dose 10 μM; leukemia
HOP-92 = conditions: single dose 10 μM; non-small lung carcinoma
TK-10 = conditions: single dose 10 μM; renal carcinoma
NCI-H226 = conditions: single dose 10 μM; non-small lung carcinoma
PC-3 = conditions: single dose 10 μM; prostate carcinoma
EKVX = conditions: single dose 10 μM; non-small lung carcinoma
MCF7 = conditions: single dose 10 μM; breast carcinoma
NCI/ADR-RES = conditions: single dose 10 μM; ovarian carcinoma
M14 = conditions: single dose 10 μM; melanoma
OVCAR-5 = conditions: single dose 10 μM; ovarian carcinoma
NCI-H522 = conditions: single dose 10 μM; non-small lung carcinoma
CCRF-CEM = conditions: single dose 10 μM; leukemia
T-47D = conditions: single dose 10 μM; breast carcinoma
SNB-19 = conditions: single dose 10 μM; CNS cancer
HL-60(TB) = conditions: single dose 10 μM; leukemia
HCT-116 = conditions: single dose 10 μM; colon cancer
UO-31 = conditions: single dose 10 μM; renal carcinoma
MDA-MB-468 = conditions: single dose 10 μM; breast carcinoma
SF-268 = conditions: single dose 10 μM; CNS cancer
HOP-62 = conditions: single dose 10 μM; non-small lung carcinoma
[1] = system: NCI 60 cancer cell line panel; experiment: NCI 60 full panel summary; conditions: single dose 10 μM; mean over the NCI 60 panel
SR = conditions: single dose 10 μM; leukemia
SK-OV-3 = conditions: single dose 10 μM; ovarian carcinoma
SN12C = conditions: single dose 10 μM; renal carcinoma
SF-295 = conditions: single dose 10 μM; CNS cancer
MALME-3M = conditions: single dose 10 μM; melanoma
HCT-15 = conditions: single dose 10 μM; colon cancer
A498 = conditions: single dose 10 μM; renal carcinoma
MOLT-4 = conditions: single dose 10 μM; leukemia
ACHN = conditions: single dose 10 μM; renal carcinoma
786–0 = conditions: single dose 10 μM; renal carcinoma
SK-MEL-5 = conditions: single dose 10 μM; melanoma
SF-539 = conditions: single dose 10 μM; CNS cancer
BT-549 = conditions: single dose 10 μM; breast carcinoma
SK-MEL-28 = conditions: single dose 10 μM; melanoma
NCI-H460 = conditions: single dose 10 μM; non-small lung carcinoma
A549/ATCC = conditions: single dose 10 μM; non-small lung carcinoma
LOX IMVI = conditions: single dose 10 μM; melanoma
OVCAR-3 = conditions: single dose 10 μM; ovarian carcinoma
UACC-257 = conditions: single dose 10 μM; melanoma
OVCAR-4 = conditions: single dose 10 μM; ovarian carcinoma
KM12 = conditions: single dose 10 μM; colon cancer
SW-620 = conditions: single dose 10 μM; colon cancer
RXF 393 = conditions: single dose 10 μM; renal carcinoma
IGROV1 = conditions: single dose 10 μM; ovarian carcinoma
MDA-MB-435 = conditions: single dose 10 μM; melanoma
HT29 = conditions: single dose 10 μM; colon cancer
SNB-75 = conditions: single dose 10 μM; CNS cancer
OVCAR-8 = conditions: single dose 10 μM; ovarian carcinoma
HCC-2998 = conditions: single dose 10 μM; colon cancer
SK-MEL-2 = conditions: single dose 10 μM; melanoma
U251 = conditions: single dose 10 μM; CNS cancer
NCI-H23 = conditions: single dose 10 μM; non-small lung carcinoma
DU-145 = conditions: single dose 10 μM; prostate carcinoma
COLO 205 = conditions: single dose 10 μM; colon cancer

Molecule: 3-(5-(Benzofuran-2-yl)-1-phenyl-1H-pyrazol-3-yl)-1-(3,4-dimethoxyphenyl)prop-2-en-1-one [2c]
- GI% (UACC-62): 4.68%
- GI% (RPMI-8226): 4.63%
- GI% (CAKI-1): 10.30%
- GI% (K-562): 5.48%
- GI% (HOP-92): 13.94%
- GI% (TK-10): 6.22%
- GI% (NCI-H226): 1.83%
- GI% (PC-3): 7.06%
- GI% (EKVX): 0.81%
- GI% (MCF7): 9.78%
- GI% (NCI/ADR-RES): 1.79%
- GI% (M14): 1.79%
- GI% (OVCAR-5): 0.00%
- GI% (NCI-H522): 1.92%
- GI% (CCRF-CEM): 8.09%
- GI% (T-47D): 9.23%
- GI% (SNB-19): 4.96%
- GI% (HL-60(TB)): 6.49%
- GI% (HCT-116): 0.17%
- GI% (UO-31): 15.32%
- GI% (MDA-MB-468): 0.93%
- GI% (SF-268): 1.66%
- GI% (HOP-62): 4.42%
- Mean GI% [1]: 2.16%
- GI% (SR): 17.15%
- GI% (SK-OV-3): 11.15%
- GI% (SN12C): 10.90%
- GI% (SF-295): 9.48%
- GI% (MALME-3M): 5.86%
- GI% (HCT-15): 1.66%
- GI% (A498): 6.80%
- GI% (MOLT-4): 4.38%
- GI% (ACHN): 0.70%
- GI% (786–0): 2.44%
- GI% (SK-MEL-5): 1.65%
- GI% (SF-539): 4.21%
- GI% (BT-549): 16.27%

Molecule: COc1ccc(C2=NNC(c3cn(-c4ccccc4)nc3-c3cc4ccccc4o3)C2)cc1OC (stereo not drawn) [3c, 3-(Benzofuran-2-yl)-4-(3-(3,4-dimethoxyphenyl)-4,5-dihydro-1H-pyrazol-5-yl)-1-phenyl-1H-pyrazole]
- GI% (UACC-62): 62.47%
- GI% (RPMI-8226): 88.22%
- GI% (CAKI-1): 76.85%
- GI% (SK-MEL-28): 35.60%
- GI% (NCI-H460): 81.94%
- GI% (K-562): 87.48%
- GI% (HOP-92): 75.25%
- GI% (A549/ATCC): 57.50%
- GI% (LOX IMVI): 65.24%
- GI% (TK-10): 42.27%
- GI% (NCI-H226): 68.39%
- GI% (OVCAR-3): 65.22%
- GI% (UACC-257): 45.64%
- GI% (PC-3): 66.98%
- GI% (EKVX): 57.67%
- GI% (MCF7): 77.82%
- GI% (M14): 63.24%
- GI% (OVCAR-4): 58.72%
- GI% (OVCAR-5): 41.14%
- GI% (KM12): 68.12%
- GI% (NCI-H522): 51.41%
- GI% (CCRF-CEM): 84.09%
- GI% (T-47D): 81.51%
- GI% (SNB-19): 59.83%
- GI% (HL-60(TB)): 88.80%
- GI% (SW-620): 47.04%
- GI% (RXF 393): 36.89%
- GI% (HCT-116): 74.37%
- GI% (UO-31): 80.36%
- GI% (IGROV1): 61.79%
- GI% (MDA-MB-468): 78.06%
- GI% (SF-268): 61.15%
- GI% (HOP-62): 33.71%
- Mean GI% [1]: 60.71%
- GI% (SR): 77.33%
- GI% (MDA-MB-435): 65.91%
- GI% (SK-OV-3): 32.78%
- GI% (SN12C): 63.01%
- GI% (HT29): 64.31%
- GI% (SNB-75): 58.00%
- GI% (SF-295): 58.47%
- GI% (MALME-3M): 30.46%
- GI% (OVCAR-8): 63.70%
- GI% (HCT-15): 49.94%
- GI% (HCC-2998): 64.60%
- GI% (SK-MEL-2): 47.50%
- GI% (U251): 60.18%
- GI% (A498): 7.63%
- GI% (MOLT-4): 80.97%
- GI% (ACHN): 74.84%
- GI% (786–0): 52.36%
- GI% (NCI-H23): 53.25%
- GI% (SK-MEL-5): 74.73%
- GI% (DU-145): 58.05%
- GI% (SF-539): 56.77%
- GI% (COLO 205): 47.04%
